Measured values reported in PMC10102027, “Helquat dyes targeting G-quadruplexes as a new class of anti-HIV-1 inhibitors” (Scientific Reports, 2023).

Assays:
HIV-1 [1] = assay: Adsorption assay (RT activity in supernatant); assay type: cell-based; conditions: 10 µM, compound and virions added to MT-4 cells simultaneously, washed out after 2 h, RT activity 5 days after infection
Method: (§1) To address virion binding and entry in a competitive setting, we performed an adsorption assay where test compounds and virions were added to MT-4 cells simultaneously and were washed out after 2 h of incubation. In parallel, we performed a replication assay where MT-4 cells were infected with HIV-1 and the tested compounds were added 1 h later. In both cases, the infection was evaluated by measuring reverse transcriptase activity in a cell-free supernatant 5 days after the infection (Fig. 3). As controls, PBS (phosphate-buffered saline) and inhibitors of different HIV-1 life-cycle steps were used: AMD (AMD3100), an inhibitor of gp120 attachment to CXCR4 receptors of the target cell, thus preventing HIV-1 adsorption and entry; AZT (azidothymidine), an inhibitor of reverse transcriptase; and RAL (raltegravir), an integrase inhibitor.
(§2) MT-4 cells were seeded in 80 µl of the Roswell Park Memorial Institute (RPMI) medium in the amount of 2 × 10^5 cells per well of a 96-well plate, and 10 µl of the virus stock were immediately added with the final multiplicity of infection (MOI) of 0.05. For a replication assay, the infected cells were incubated at 37 °C for 1 h before the addition of compounds being tested (10 µM final concentration) and subsequently cultivated at 37 °C for another 5 days. For an adsorption test, by contrast, the compounds (10 µM final concentration) were added simultaneously with the virus, and after 2 h of incubation, the cells were washed three times with PBS to remove the compounds and unbound virions; after the addition of 100 µl of the RPMI medium, the cells were cultivated at 37 °C for 5 days. Five days post-infection, aliquots of virus-containing cell-free supernatants were harvested and analysed by reverse transcriptase (RT) assay (described in the Supplementary Information). The experiments were performed as biological replicates where the sample size for each condition was n = 3.
(§3) RT assay. The reverse transcriptase (RT) activity in a cell-free supernatant was assessed by an α-32P RT assay. Briefly, the RT activity in the culture medium, which corresponded to the amount of HIV-1, was used to produce a DNA copy of an RNA template by extending a complementary oligo dT DNA primer with radiolabelled nucleotides. A reaction mixture containing 50 mM Tris-HCl pH 7.8, 75 mM KCl, 2 mM DTT, 5 mM MgCl2 and 0.5% NP-40 (all Sigma-Aldrich), 5 µg per ml of poly (rA)-poly (dT) (The Midlan Certified Reagent Company) with 1 µl 10-mCi/ml [α-32P]dTTP (American Radiolabeled Chemicals) per ml, and the tested sample was incubated at 37°C for two hours, after which 10 µl were spotted on DEAE blotting paper (PerkinElmer) and air-dried. After five washes with SSC buffer (0.15 M NaCl, 0.015 M sodium citrate) and three additional washes with 85% ethanol, the blotting paper was exposed to Phosphoscreen overnight, which was scanned on a Typhoon 9410 Phosphorimager instrument (GE Healthcare). The intensity of the dots was analysed by the ImageQuant software (GE Healthcare).

NL4-3 HIV-1 = assay: Modified time-of-addition assay; assay type: cell-based; conditions: 10 μM, MT-4 cells, RT activity 31 h post-infection; for activity by time of addition: added 2-24 h post-infection
Method: There are indications that G4s in the HIV-1 promoter might play roles in both RNA and DNA forms. G4s present in the LTR region of HIV-1 genomic RNA could influence reverse transcription. By contrast, G4s in the promoter region of the integrated HIV-1 provirus might regulate the transcription of viral genome and of viral mRNAs and thus the expression of viral proteins and the production of new virions - both the later stages of the HIV-1 life cycle. A modified time-of-addition assay was performed with an emphasis on the later stages of the HIV-1 life cycle, such as reverse transcription, integration and provirus expression. The tested compounds were added at several time points, but the initial time point was 2 h post-infection to eliminate their virucidal/adsorption/entry effects. Several inhibitors of the individual steps of the HIV-1 life cycle were used as controls to resolve the post-entry steps of the HIV-1 life cycle. MT-4 cells were infected with NL4-3 HIV-1 and the infection was allowed to proceed for 1 h. Subsequently, the unbound virions were washed out, and the cells were resuspended in fresh media. The compounds were first added 2 h after the infection. The culture media were harvested 31 h later and the number of released virions was monitored through the activity of reverse transcriptase in the culture media (Fig. 4).
MT-4 cells were infected with NL4-3 HIV-1 at a MOI of 1. After 1 h, the cells were washed, seeded (100,000 cells/well) and incubated at 37 °C. […] HIV-1 production was determined 31 h post-infection by measuring RT activity in the supernatant.
as §3

HIV-1 [2] = assay: Replication assay (RT activity in supernatant); assay type: cell-based; conditions: 10 µM, compound added 1 h after infection of MT-4 cells, RT activity 5 days after infection
Method: as §1, §2, §3

[3] = tested on: ss G4 LTR wild-type oligonucleotide; assay: Light-up experiment, ss G4 LTR; assay type: binding, HIV-1; conditions: 4 μM compound
Method: There are many small molecular probes for specific G4 visualization in cells. […] To distinguish specifically the potential light-up triggered by helquat binding to G-quadruplexes in the HIV-1 LTR, we employed two control oligonucleotides, both unable to form G-quadruplexes (Fig. 6A): an LTR oligonucleotide sequence with two point mutations precluding G4 formation and an LTR oligonucleotide with a scrambled sequence (both adopted from[41]).
The selected compounds were incubated in the presence of the G4 LTR wild-type (wt) oligonucleotide, the G4 LTR M4 + M5 oligonucleotide containing mutations that disabled G-quadruplex formation (described previously[41]), and the G4 LTR scrambled-sequence oligonucleotide, or the buffer-only control. The compounds were tested at a compound:oligonucleotide ratio of 2:1 (4 μM compounds and 2 μM oligonucleotide) in PBS in a 384-well plate. Emission spectra were measured after excitation at 280 nm in a Tecan Infinite M1000 plate reader. The fluorescent image of the plate was taken with the Bio-Rad ChemiDoc imaging system after UV-light excitation. The Light-up titration experiment was performed similarly as described above with the exception that 4 μM compound 12 was incubated with serial dilutions (1:1) of oligonucleotides (ss G4 LTR wild type, G4 c-myc and G4 c-kit1) spanning final concentrations 2 to 0.002 μM. The excitation at 280 nm and emission at 600 nm were used to monitor the Light-up.

[4] = 2 μM oligonucleotide, excitation 280 nm

Compound	effect on virus adsorption (HIV-1 [1])	latest time of administration post-infection with retained antiviral activity (NL4-3 HIV-1)	activity by time of addition (NL4-3 HIV-1)	effect on viral replication (HIV-1 [2])	fluorescence light-up [3, 4]	maximum fluorescence intensity with non-G4-forming oligonucleotides (M4 + M5, scrambled), times lower than with wt [3, 4]	fluorescence in light-up titration, ss G4 LTR versus c-myc and c-kit1 ([3]; oligonucleotide concentration of 0.5 μM and below, emission 600 nm)
C(=C\c1cc(/C=C/c2ccc3c(c2)CCO3)[n+]2c(c1)-c1c(ccc3c1-c1cccc[n+]1CCC3)CCC2)/c1ccc2c(c1)CCO2 [Compound 14]	minimal or no effect on virus adsorption	up to 8 h	preserved their activity at later time points	significantly impairing viral replication			
Cn1cc(/C=C/c2cc(/C=C/c3cn(C)c4ccccc34)[n+]3c(c2)-c2c(ccc4c2-c2cccc[n+]2CCC4)CCC3)c2ccccc21 [Compound 12]	minimal or no effect on virus adsorption	up to 8 h	preserved their activity at later time points	significantly impairing viral replication	strong and specific fluorescence	2.5 times	stronger fluorescence after incubation with ss G4 LTR
COc1ccc2ccccc2c1/C=C/c1cc[n+]2c(c1)-c1c(c(C)c(C)c3c1-c1cc(/C=C/c4c(OC)ccc5ccccc45)cc[n+]1CC3)CC2 [Compound 15]	minimal or no effect on virus adsorption	≤ 5 h	mainly manifested when these compounds are administered before or early during reverse transcription	significantly impairing viral replication			
